The source of these data is ChEMBL document CHEMBL1201862, “PubChem BioAssay data set” (2004).

What all share (assay): inhibition of tumour cell growth, NCI panel, 48 h
Assay [1] deals with Malme-3M.
In assay [2] the test system is DU-145.
Assay [3] deals with A549.
For assay [4], the system named is U-251.
Assay [5] relates to MOLT-4.
Assay [6] relates to ACHN.
For assay [7], the system named is OVCAR-8.
For assay [8], the system named is MCF7.
The test system of assay [9] is K562.
For assay [10], the system named is SK-MEL-2.
Assay [11] deals with A498.
Assay [12] relates to NCI-H522.
The subject of assay [13] is NCI-H226.
Assay [14] concerns Hs-578T.
Assay [15] deals with LOX IMVI.
Assay [16] deals with SK-MEL-28.
For assay [17], the system named is T47D.

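1) Cells in 96-well plates. 2) Compound, 48 h, 5 concentrations. 3) Linear interpolation between surrounding doses. 4) Unreached endpoint = highest concentration. Abbreviation: GI50, concentration required for 50% inhibition of growth.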 The source made the active and inactive calls. Cut-off read from the data, not from the text of the source: active = GI50 up to about 1.1 µM and inactive = higher.

Regarding `COc1ccc(CCn2cnc3ccccc32)cc1`, the GI50 in assay [1], in assay [2], in [3], in assay [4], in assay [5] and in assay [6] was > 100 µM (inactive) throughout. The GI50 in [7], in assay [8], in assay [9], in assay [10], in [11] and in assay [12] was > 100 µM (inactive) throughout. Moreover, the GI50 in [13] and in assay [14] was > 100 µM (inactive) throughout.

As for `CN(Cc1cnc2nc(N)nc(N)c2n1)c1ccc(C(=O)NC(CCC(=O)O)C(=O)O)cc1` (stereo unspecified), the GI50 in assay [1] was 7.29 µM (inactive); in assay [2], 0.0154 µM (active); in [15], < 0.01 µM (active); in [3] it was 0.0384 µM (active); in [4], 0.0916 µM (active); in assay [5], 0.0205 µM (active). In addition, the GI50 in assay [6] is 0.0204 µM (active); in assay [7] it was < 0.0448 µM (active); in assay [9], < 0.01 µM (active); in assay [10], > 100 µM (inactive); in [11], > 100 µM (inactive); in assay [16], 1.25 µM (inactive). Also, the GI50 in assay [12] was 0.398 µM (active); in assay [13], 5.38 µM (inactive).

In the case of `CCN1CCCCCCCCCC(=N/O)/C(=N\O)C1`, the GI50 in [1], in assay [2], in [15], in assay [3], in assay [4] and in assay [5] was > 100 µM (inactive) each time. The GI50 in assay [6], in [7], in assay [8], in [9], in assay [17] and in assay [11] was > 100 µM (inactive) throughout. The GI50 in [16], in [12] and in assay [13] was > 100 µM (inactive) throughout.

Turning to `C=C(CC[C@@H](C)[C@H]1CC[C@@]2(C)C3=C(CC[C@]12C)[C@@]1(C)CC[C@H](O)[C@@H](C)C1CC3)C(C)C` (stereo partly specified), the GI50 in [1] was 1.29 µM (inactive); in [15] it was 0.906 µM (active); in assay [3], 1.2 µM (inactive); in [4], 1.39 µM (inactive); in [5] it was 0.953 µM (active); in [6], 1.38 µM (inactive). The GI50 is 1.61 µM (inactive) in assay [7]; 1.47 µM (inactive) in assay [8]; 0.273 µM (active) in assay [9]; 1.56 µM (inactive) in assay [10]; 1.41 µM (inactive) in assay [11]; 1.28 µM (inactive) in [16]. The GI50 in [13] is 1.81 µM (inactive); in assay [14], 1.6 µM (inactive).

In the case of `CCN1CCN(c2nc3ccccc3nc2C(=O)c2ccc(OC)c(OC)c2)CC1`, the GI50 in [1] is 16.4 µM (inactive); in assay [2], 30.5 µM (inactive); in assay [15] it was 12.7 µM (inactive); in assay [3] it was 13.6 µM (inactive); in assay [4], 14.8 µM (inactive); in [5], 5.16 µM (inactive). The GI50 in assay [6] was 9.91 µM (inactive); in assay [7] it was 12.6 µM (inactive); in [8] it was 18.2 µM (inactive); in assay [9], 12.6 µM (inactive); in assay [10] it was 47.8 µM (inactive); in [17], > 100 µM (inactive). The GI50 in assay [11] was 27.7 µM (inactive); in assay [16], 13.5 µM (inactive); in [12] it was 12 µM (inactive); in assay [13], 22.3 µM (inactive).

For `CC(=O)C1C(=O)C(=O)N(c2ccc(Cl)c(Cl)c2)C1=O` (stereo unspecified), the GI50 in assay [2], in [15], in assay [3], in assay [4], in [5] and in [6] was > 100 µM (inactive) in each case. Also, the GI50 in assay [7], in assay [8], in assay [10], in [17], in [16] and in assay [13] was > 100 µM (inactive) in each case.

As to `CCN(CC)Cc1sc2nc3ccccc3n2c1-c1ccc(OC)cc1`, the GI50 in assay [1] is 17.2 µM (inactive); in [2], 35.4 µM (inactive); in assay [15] it was 28.3 µM (inactive); in [3] it was 31.8 µM (inactive); in assay [4], 29.2 µM (inactive); in assay [5], 19.6 µM (inactive). For the same compound, the GI50 in assay [6] is 45.1 µM (inactive); in [7], 36.9 µM (inactive); in assay [8], 23 µM (inactive); in assay [9], 3.22 µM (inactive); in [10] it was 43.4 µM (inactive); in assay [11] it was 22.9 µM (inactive). In addition, the GI50 was 22.7 µM (inactive) in assay [16], 4.11 µM (inactive) in [12], 22.8 µM (inactive) in assay [13] and 34.9 µM (inactive) in [14].

Take `C[Si](C)(OCCS(=O)(=O)O)C1S(=O)(=O)OCCOS1(=O)=O`: the GI50 in assay [1] is > 100 µM (inactive); in assay [2], 80.9 µM (inactive); in [15] it was 21.2 µM (inactive); in [4] it was 21.8 µM (inactive); in assay [5], 30.3 µM (inactive); in assay [6], 35.9 µM (inactive). Moreover, the GI50 in [7] was 86.3 µM (inactive); in assay [8], 36.6 µM (inactive); in assay [9] it was 70 µM (inactive); in [17] it was 36.6 µM (inactive); in [11], > 100 µM (inactive); in assay [16], > 100 µM (inactive). Further, the GI50 was 68.1 µM (inactive) in assay [12] and 64.9 µM (inactive) in [13].

Consider `COC(=O)/C=C/c1cnc2c(c1)oc(=O)n2CCc1ccccn1`, for which the GI50 in assay [1], in assay [15], in assay [3], in assay [4], in [5] and in assay [6] was > 100 µM (inactive) each time. Further, the GI50 was > 100 µM (inactive) in assay [8]; 73.3 µM (inactive) in assay [9]; > 100 µM (inactive) in [10]; 50.6 µM (inactive) in [17]; 0.773 µM (active) in [11]; > 100 µM (inactive) in assay [16]. For the same compound, the GI50 was 17.2 µM (inactive) in assay [13] and > 100 µM (inactive) in [14].

In the case of `CO[C@@]12C[C@@H](C)C3=CCC(C)=C3CC1=C(C)C(=O)O2`, the GI50 is > 100 µM (inactive) in assay [1]; > 100 µM (inactive) in assay [15]; > 100 µM (inactive) in assay [4]; 45.7 µM (inactive) in assay [5]; > 100 µM (inactive) in assay [6]; > 100 µM (inactive) in [7]. The GI50 in [9] was 53.3 µM (inactive); in assay [10], > 100 µM (inactive); in assay [11], > 100 µM (inactive); in assay [16] it was > 100 µM (inactive); in [13], > 100 µM (inactive); in [14], > 100 µM (inactive).
